Assay results reported in patent publication US20060110401A1, “Mixture of peptides from c and ns3 proteins of the hepatitis c virus and applications thereof” (priority 2002, published 2006).
Like-named read-outs stand apart in the source and are kept apart here. Residues, ends and D or L forms follow the SMILES beside them.

Assays:
HLA-DR11 (DRB1*1101) = HLA-DR11 (DRB1*1101) (Homo sapiens, UniProt P01903+P01911, A100R/A169T/A87E/I96F/K41T/L162R/M171V/P40S/Q125H/Q178H/Q39Y/Q99D/R42S/S66Y/T262R/V115G/W38E); test: biochemical; type: binding; details: read-out: binds with good affinity to DR11
HLA-DRB5 (DRB5*0101) = biological target: T1, HLA-DRB5 (DRB5*0101) (Homo sapiens, UniProt P01903+Q30154); test: biochemical; type: binding; details: read-out: binds with good affinity to DRB5
T1 construct: endogenous in cells; host or cells: homozygous EBV-transformed human B lymphocyte lines; immunopurified with antibody L243

HLA-DR13 (DRB1*1301) = HLA-DR13 (DRB1*1301) (Homo sapiens, UniProt P01903+P01911, A100E/A169T/K41T/L162R/M171V/P40S/Q125H/Q178H/Q39Y/Q99D/R42S/S66N/T262R/W38E/Y61H); test: biochemical; type: binding; details: read-out: binds with good affinity to DR13
DR1 = test: DR1
DRB5 = test: DRB5
DR13 = test: DR13
Excerpt: (§1) Table printed on a drawing sheet, Figure 2
Where the first naming reader finds the target: head: DR13

DRB4 = test: DRB4
Excerpt: as §1
Where the first naming reader finds the target: head: DRB4

DR11 = test: DR11
Excerpt: as §1
Where the first naming reader finds the target: head: DR11

DR7 = test: DR7
DP402 = test: DP402
HLA-DR7 (DRB1*0701) = HLA-DR7 (DRB1*0701) (Homo sapiens, UniProt P01903+P01911, A100R/A102G/A103Q/D57E/D86V/E43K/F76Y/K127E/L162R/M171V/P40G/Q125H/Q99D/R33Q/R42Y/R54Q/S133A/S66F/T210M/V115G/Y107V/Y59L/Y89S); test: biochemical; type: binding; details: read-out: binds with good affinity to DR7
HLA-DR1 (DRB1*0101) = biological target: T2, HLA-DR1 (DRB1*0101) (Homo sapiens, UniProt P01903+P01911, A100R/D57E/F55L/F60I/F76Y/I96L/L162R/M171V/P40L/Q125E/R42F/V115G/Y59C); test: biochemical; type: binding; details: for IC50: DRB1*0101
T2 construct: endogenous in cells; host or cells: homozygous EBV-transformed human B lymphocyte lines; immunopurified with antibody L243

DR4 = test: DR4
DR15 = test: DR15
HLA-DRB4 (DRB4*0101) = biological target: T3, HLA-DRB4 (DRB4*0101) (Homo sapiens, UniProt P01903+P13762, G164S); test: biochemical; type: binding; details: read-out: binds with good affinity to DRB4
T3 construct: endogenous in cells; host or cells: homozygous EBV-transformed human B lymphocyte lines; immunopurified with antibody L243

[1] = system: T lymphocytes derived from PBMCs from patients chronically infected with HCV; type: cell-based, human; details: supernatant 48 h, —: not detected
HLA-DR4 (DRB1*0401) = biological target: T4, HLA-DR4 (DRB1*0401) (Homo sapiens, UniProt P01903+P01911, A100K/A169T/F76Y/I96L/K127E/L162R/M171V/N62H/P40V/Q125Y/R42H/S133A/S149N/S66Y/V115G/V209L/W38E); test: biochemical; type: binding; details: read-out: binds with good affinity to DR4
T4 construct: endogenous in cells; host or cells: homozygous EBV-transformed human B lymphocyte lines; immunopurified with antibody L243

HLA-DR15 (DRB1*1501) = biological target: T5, HLA-DR15 (DRB1*1501) (Homo sapiens, UniProt P01903+P01911); test: biochemical; type: binding; details: DRB1*1501; read-out: binds with good affinity to DR15
T5 construct: endogenous in cells; host or cells: homozygous EBV-transformed human B lymphocyte lines; immunopurified with antibody L243

DR3 = test: DR3
Excerpt: as §1
Where the first naming reader finds the target: head: DR3

DP401 = test: DP401
DRB3 = test: DRB3
[2] = read-out: binds with good affinity to DR1

HLA-DR11 (DRB1*1101), sequence (P01903 26-254 limits assumed, other chains not shown): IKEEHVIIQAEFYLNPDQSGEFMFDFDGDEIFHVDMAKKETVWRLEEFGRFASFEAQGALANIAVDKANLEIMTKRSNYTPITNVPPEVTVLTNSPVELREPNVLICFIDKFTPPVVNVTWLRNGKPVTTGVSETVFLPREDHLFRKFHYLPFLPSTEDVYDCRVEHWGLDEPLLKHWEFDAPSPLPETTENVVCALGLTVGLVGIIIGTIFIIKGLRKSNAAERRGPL

CC[C@H](C)[C@H](NC(=O)[C@@H](NC(=O)[C@H](CC(=O)O)NC(=O)[C@H](C)NC(=O)[C@H](Cc1c[nH]cn1)NC(=O)[C@H](CCCNC(=N)N)NC(=O)[C@@H](NC(=O)[C@@H](NC(=O)[C@H](CC(C)C)NC(=O)[C@H](Cc1ccc(O)cc1)NC(=O)[C@H](CC(C)C)NC(=O)[C@H](CC(=O)O)NC(=O)[C@H](CO)NC(=O)[C@@H](N)CO)C(C)C)[C@@H](C)O)C(C)C)C(=O)N1CCC[C@H]1C(=O)N[C@H](C(=O)N[C@@H](CCCNC(=N)N)C(=O)N[C@@H](CCCNC(=N)N)C(=O)N[C@@H](CCCNC(=N)N)C(=O)NCC(=O)N[C@@H](CC(=O)O)C(=O)N[C@@H](CO)C(=O)N[C@@H](CCCNC(=N)N)C(=O)NCC(=O)N[C@@H](CO)C(=O)N[C@@H](CC(C)C)C(=O)N[C@@H](CC(C)C)C(=O)O)C(C)C [13N 1127-1153]
IC50 (HLA-DR11 (DRB1*1101)): < 1000 nM
IC50 (HLA-DRB5 (DRB5*0101)): < 1000 nM
IC50 (HLA-DR13 (DRB1*1301)): < 1000 nM
IC50 (DR1): 700 nM
IC50 (DRB5): 500 nM
IC50 (DR13): 300 nM
IC50 (DRB4): 2500 nM
IC50 (DR11): 17 nM
IC50 (DR7): 17 nM
IC50 (DP402): 8710 nM
IC50 (HLA-DR7 (DRB1*0701)): < 1000 nM
IC50 (HLA-DR1 (DRB1*0101); [2]): < 1000 nM
IC50 (DR4): 3500 nM

CC[C@H](C)[C@H](NC(=O)CNC(=O)[C@@H](NC(=O)[C@H](C)NC(=O)[C@H](Cc1c[nH]cn1)NC(=O)CN)C(C)C)C(=O)N[C@@H](Cc1ccccc1)C(=O)N[C@@H](CCCNC(=N)N)C(=O)N[C@@H](C)C(=O)N[C@@H](C)C(=O)N[C@H](C(=O)N[C@@H](CS)C(=O)N[C@H](C(=O)N[C@@H](CCCNC(=N)N)C(=O)NCC(=O)N[C@H](C(=O)N[C@@H](C)C(=O)N[C@@H](CCCCN)C(=O)N[C@@H](C)C(=O)N[C@H](C(=O)N[C@@H](CC(=O)O)C(=O)N1CCC[C@H]1C(=O)O)C(C)C)C(C)C)[C@@H](C)O)C(C)C [15N 1174-1195] (H-GHAVGIFRAAVCTRGVAKAVDP-OH; N-terminus and C-terminus assumed)
IC50 (DR15): 90 nM
IC50 (HLA-DR11 (DRB1*1101)): < 1000 nM
IC50 (HLA-DRB4 (DRB4*0101)): < 1000 nM
IC50 (HLA-DRB5 (DRB5*0101)): < 1000 nM
IC50 (DRB5): 20 nM
IC50 (DR13): 10000 nM
IL10 ([1]; patient 067): 55 pg/mL
IL10 ([1]; patient 078): 43 pg/mL
IC50 (HLA-DR4 (DRB1*0401)): < 1000 nM
IC50 (DP402): 2980 nM
IC50 (HLA-DR15 (DRB1*1501)): < 1000 nM
IC50 (HLA-DR1 (DRB1*0101); competition with biotinylated tracer HA 306-318, read-out: IC50, binding to HLA-DR1): 3 nM
IC50 (HLA-DR1 (DRB1*0101); [2]): < 1000 nM
affinity for HLA-DR1 (in words) (HLA-DR1 (DRB1*0101); legend of FIG. 4): high affinity
IC50 (DR3): 30000 nM
IC50 (DR4): 30 nM

CC[C@H](C)[C@H](NC(=O)CNC(=O)[C@H](Cc1c[nH]cn1)NC(=O)[C@H](C)NC(=O)[C@H](CCCCN)NC(=O)[C@H](CO)NC(=O)[C@H](CCSC)NC(=O)[C@H](Cc1ccc(O)cc1)NC(=O)[C@H](C)NC(=O)CNC(=O)[C@H](Cc1ccccc1)NC(=O)CNC(=O)[C@H](CC(C)C)NC(=O)[C@@H](NC(=O)[C@H](C)NC(=O)[C@H](C)NC(=O)[C@@H](NC(=O)[C@H](CO)NC(=O)[C@@H]1CCCN1C(=O)[C@H](CC(N)=O)NC(=O)[C@H](CC(C)C)NC(=O)[C@@H](NC(=O)[C@H](CC(C)C)NC(=O)[C@@H](NC(=O)[C@H](CCCCN)NC(=O)[C@H](Cc1ccc(O)cc1)NC(=O)CNC(=O)[C@H](CCC(N)=O)NC(=O)[C@H](C)N)C(C)C)C(C)C)C(C)C)[C@@H](C)O)C(=O)N[C@@H](CC(=O)O)C(=O)O [18N 1246-1275]
IC50 (DR15): 58 nM
IC50 (HLA-DR11 (DRB1*1101)): < 1000 nM
IC50 (HLA-DR13 (DRB1*1301)): < 1000 nM
IC50 (DR1): 1 nM
IC50 (DP401): > 100000 nM
IC50 (DR13): 900 nM
IC50 (DRB3): > 30000 nM
IC50 (DRB4): 2500 nM
IC50 (DR11): 40 nM
IC50 (HLA-DR4 (DRB1*0401)): < 1000 nM
IC50 (DR7): 15 nM
IC50 (DP402): 11400 nM
IC50 (HLA-DR7 (DRB1*0701)): < 1000 nM
IC50 (HLA-DR15 (DRB1*1501)): < 1000 nM
IC50 (HLA-DR1 (DRB1*0101); [2]): < 1000 nM
IC50 (DR3): 2500 nM
IC50 (DR4): 5 nM
